Values quoted from earlier work as cited in patent US20230405112A1, “PHARMACEUTICAL COMPOSITION, PHARMACEUTICAL COMBINED FORMULATION, AND COMBINED FORMULATION KIT FOR PREVENTION OR TREATMENT OF CHRONIC HEPATITIS B, EACH COMPRISING, AS ACTIVE INGREDIENT, ORAL ANTIVIRAL AGENT AND THERAPEUTIC VACCINE INCLUDING LIPOPEPTIDE AND POLY(I:C) ADJUVANT” (CHA VACCINE RESEARCH INSTITUTE CO., LTD, priority 2020, published 2023).
Several values for one entry are separate records, joined by “and”; a condition that tells them apart may be missing. Equal entries are not always repeated. Structures can show the parent of a compound that is named as a salt. Where two headings read alike, the source gives them in different places.

Columns and labels:
hepatitis B virus [1] = test system: hepatitis B virus
hepatitis B virus [2] = conditions: after 1 year of treatment
hepatitis B virus [3] = conditions: Chinese patients; 7 years
hepatitis B virus [4] = test system: hepatitis B virus; remark: listed apart in the source
[5] = test system: virus-specific cytotoxic T lymphocytes (CTLs); conditions: combined with an influenza virus T cell epitope; administered to mice
hepatitis B virus [6] = test system: hepatitis B virus; remark: listed apart in the source
[7] = HBeAg(+), phase 3, 2 year results
[8] = baseline HBeAg(+), 1 year (week 48)
[9] = baseline HBeAg(+), 2 years (week 96)
[10] = baseline HBeAg(−), 1 year (week 48)
[11] = baseline HBeAg(−), 2 years (week 96)
[12] = HBeAg(+), 3-year follow-up, (non-Asian)
[13] = HBeAg(+), phase 3, 1 year, (non-Asian)
[14] = all patients, 10-year follow-up

C=C1[C@H](CO)[C@@H](O)C[C@@H]1n1cnc2c(=O)[nH]c(N)nc21 [Entecavir]
HBeAg seroconversion (%) (hepatitis B virus [1]; 5 year results): 23%
HBeAg seroconversion n/N (hepatitis B virus [1]; 5 year results): 33/141
HBsAg loss (%) (hepatitis B virus [1]; HBeAg(+), 5 year results): 1.4%
HBsAg loss n/N (hepatitis B virus [1]; HBeAg(+), 5 year results): 2/145
HBsAg loss (%) (hepatitis B virus [1]; [7]): 5%
HBsAg loss n/N (hepatitis B virus [1]; [7]): 18/354
HBsAg seroconversion (%) (hepatitis B virus [1]; [7]): 2%
HBsAg seroconversion n/N (hepatitis B virus [1]; [7]): 6/354
HBeAg seroconversion (%) (hepatitis B virus [1]; phase 3, 2 year results): 31%
HBeAg seroconversion n/N (hepatitis B virus [1]; phase 3, 2 year results): 110/354
ALT nomalisatioin (hepatitis B virus [2]; HBeAg(+) patients): 68%
Anti-Hbe-seroconversion (hepatitis B virus [2]; HBeAg(+) patients): 21%
HBV DNA <60~80 IU/ml (hepatitis B virus [2]; HBeAg(+) patients): 67%
HBs Ag loss (hepatitis B virus [2]; HBeAg(+) patients): 2%
ALT nomalisatioin (hepatitis B virus [2]; HBeAg(−) patients): 78%
HBV DNA <60~80 IU/ml (hepatitis B virus [2]; HBeAg(−) patients): 90%
HBs Ag loss (hepatitis B virus [2]; HBeAg(−) patients): 0%
HBeAg seroconversion rate (Kaplan-meier analysis) (hepatitis B virus [3]): 82.1%
HBsAg loss (%) (hepatitis B virus [3]): 2.5%
HBsAg loss, patients (hepatitis B virus [3]): 4 of 160

Nc1ccn([C@@H]2CS[C@H](CO)O2)c(=O)n1 [LAM, Lamivudine]
ALT nomalisatioin (hepatitis B virus [2]; HBeAg(+) patients): 41~72%
Anti-Hbe-seroconversion (hepatitis B virus [2]; HBeAg(+) patients): 16~18%
HBV DNA <60~80 IU/ml (hepatitis B virus [2]; HBeAg(+) patients): 36~44%
HBs Ag loss (hepatitis B virus [2]; HBeAg(+) patients): 0~1%
ALT nomalisatioin (hepatitis B virus [2]; HBeAg(−) patients): 71~79%
HBV DNA <60~80 IU/ml (hepatitis B virus [2]; HBeAg(−) patients): 72~73%
HBs Ag loss (hepatitis B virus [2]; HBeAg(−) patients): 0%

CC(C)(C)C(=O)OCOP(=O)(COCCn1cnc2c(N)ncnc21)OCOC(=O)C(C)(C)C [ADV, Adefovirdipivoxil]
ALT nomalisatioin (hepatitis B virus [2]; HBeAg(+) patients): 48~54%
Anti-Hbe-seroconversion (hepatitis B virus [2]; HBeAg(+) patients): 12~18%
HBV DNA <60~80 IU/ml (hepatitis B virus [2]; HBeAg(+) patients): 13~21%
HBs Ag loss (hepatitis B virus [2]; HBeAg(+) patients): 0%
ALT nomalisatioin (hepatitis B virus [2]; HBeAg(−) patients): 72~77%
HBV DNA <60~80 IU/ml (hepatitis B virus [2]; HBeAg(−) patients): 51~63%
HBs Ag loss (hepatitis B virus [2]; HBeAg(−) patients): 0%

CC(C)OC(=O)[C@H](C)N[P@](=O)(CO[C@H](C)Cn1cnc2c(N)ncnc21)Oc1ccccc1 [TAF, Tenofoviralafenamide fumarate]
HBeAg loss (%) (hepatitis B virus [4]; Total, 1 year (week 48)): (14%)
HBeAg loss n/N (hepatitis B virus [4]; Total, 1 year (week 48)): 78/565
HBsAg loss n/N (hepatitis B virus [4]; Total, 1 year (week 48)): 4/861
HBeAg loss (%) (hepatitis B virus [4]; Total, 2 years (week 96)): (22%)
HBeAg loss n/N (hepatitis B virus [4]; Total, 2 years (week 96)): 123/565
HBsAg loss (%) (hepatitis B virus [4]; Total, 2 years (week 96)): (<1%)
HBsAg loss n/N (hepatitis B virus [4]; Total, 2 years (week 96)): 8/861
HBeAg seroconversion (%) (hepatitis B virus [4]; baseline HBeAg(+), 1 year): (10%)
HBeAg seroconversion n/N (hepatitis B virus [4]; baseline HBeAg(+), 1 year): 58/565
HBsAg seroconversion (%) (hepatitis B virus [4]; baseline HBeAg(+), 1 year): (1%)
HBsAg seroconversion n/N (hepatitis B virus [4]; baseline HBeAg(+), 1 year): 3/576
HBeAg loss n/N (hepatitis B virus [4]; [8]): 78/565
HBsAg loss n/N (hepatitis B virus [4]; [8]): 4/576
HBeAg seroconversion (%) (hepatitis B virus [4]; baseline HBeAg(+), 2 years): (18%)
HBeAg seroconversion n/N (hepatitis B virus [4]; baseline HBeAg(+), 2 years): 99/565
HBsAg seroconversion (%) (hepatitis B virus [4]; baseline HBeAg(+), 2 years): (1%)
HBsAg seroconversion n/N (hepatitis B virus [4]; baseline HBeAg(+), 2 years): 6/576
Average reduction of HBsAg (hepatitis B virus [4]; [9]): −0.51 log10IU/ml
HBeAg loss n/N (hepatitis B virus [4]; [9]): 123/565
HBsAg loss n/N (hepatitis B virus [4]; [9]): 7/576
HBsAg seroconversion n/N (hepatitis B virus [4]; baseline HBeAg(−), 1 year): 0
HBsAg loss n/N (hepatitis B virus [4]; [10]): 0
HBsAg seroconversion (%) (hepatitis B virus [4]; baseline HBeAg(−), 2 years): (<1%)
HBsAg seroconversion n/N (hepatitis B virus [4]; baseline HBeAg(−), 2 years): 1/281
Average reduction of HBsAg (hepatitis B virus [4]; [11]): −0.14 log10IU/ml
HBsAg loss (%) (hepatitis B virus [4]; [11]): (<1%)
HBsAg loss n/N (hepatitis B virus [4]; [11]): 1/281
ALT nomalisatioin (hepatitis B virus [2]; HBeAg(+) patients): 72%
Anti-Hbe-seroconversion (hepatitis B virus [2]; HBeAg(+) patients): 10%
HBV DNA <60~80 IU/ml (hepatitis B virus [2]; HBeAg(+) patients): 64%
HBs Ag loss (hepatitis B virus [2]; HBeAg(+) patients): 1%
ALT nomalisatioin (hepatitis B virus [2]; HBeAg(−) patients): 83%
HBV DNA <60~80 IU/ml (hepatitis B virus [2]; HBeAg(−) patients): 94%
HBs Ag loss (hepatitis B virus [2]; HBeAg(−) patients): 0%

Pam3Cys-Ser-Ser
virus-specific cytotoxic T lymphocytes (CTLs) [5]: induced

CC(C)OC(=O)OCOP(=O)(CO[C@H](C)Cn1cnc2c(N)ncnc21)OCOC(=O)OC(C)C [TDF, Tenofovirdisoproxil fumarate]
HBeAg loss (%) (hepatitis B virus [4]; Total, 1 year (week 48)): (12%)
HBeAg loss n/N (hepatitis B virus [4]; Total, 1 year (week 48)): 34/285
HBsAg loss (%) (hepatitis B virus [4]; Total, 1 year (week 48)): (<1%)
HBsAg loss n/N (hepatitis B virus [4]; Total, 1 year (week 48)): 1 out of 428 and 1/428
HBeAg loss (%) (hepatitis B virus [4]; Total, 2 years (week 96)): (18%)
HBeAg loss n/N (hepatitis B virus [4]; Total, 2 years (week 96)): 51/285
HBsAg loss (%) (hepatitis B virus [4]; Total, 2 years (week 96)): (<1%)
HBsAg loss n/N (hepatitis B virus [4]; Total, 2 years (week 96)): 4/428
HBeAg seroconversion (%) (hepatitis B virus [4]; baseline HBeAg(+), 1 year): (8%)
HBeAg seroconversion n/N (hepatitis B virus [4]; baseline HBeAg(+), 1 year): 23/285
HBsAg seroconversion n/N (hepatitis B virus [4]; baseline HBeAg(+), 1 year): 0
HBeAg loss n/N (hepatitis B virus [4]; [8]): 34/285
HBsAg loss n/N (hepatitis B virus [4]; [8]): 1/288
HBeAg seroconversion (%) (hepatitis B virus [4]; baseline HBeAg(+), 2 years): (12%)
HBeAg seroconversion n/N (hepatitis B virus [4]; baseline HBeAg(+), 2 years): 35/285
HBsAg seroconversion n/N (hepatitis B virus [4]; baseline HBeAg(+), 2 years): 0
Average reduction of HBsAg (hepatitis B virus [4]; [9]): −0.64 log10IU/ml
HBeAg loss n/N (hepatitis B virus [4]; [9]): 51/285
HBsAg loss n/N (hepatitis B virus [4]; [9]): 4/288
HBsAg seroconversion n/N (hepatitis B virus [4]; baseline HBeAg(−), 1 year): 0
HBsAg loss n/N (hepatitis B virus [4]; [10]): 0
HBsAg seroconversion n/N (hepatitis B virus [4]; baseline HBeAg(−), 2 years): 0
Average reduction of HBsAg (hepatitis B virus [4]; [11]): −0.10 log10IU/ml
HBsAg loss n/N (hepatitis B virus [4]; [11]): 0
HBeAg loss (%) (hepatitis B virus [6]; HBeAg(+), 3-year follow-up): 34%
HBeAg seroconversion (%) (hepatitis B virus [6]; HBeAg(+), 3-year follow-up): 26%
HBsAg loss (%) [kaplan-meier] (hepatitis B virus [6]; [12]): 8%
HBsAg seroconversion (%) [kaplan-meier] (hepatitis B virus [6]; [12]): 6%
HBsAg seroconversion, n patients (hepatitis B virus [6]; [12]): (n = 15)
HBeAg loss n/N (hepatitis B virus [6]; HBeAg(+), 7-year follow-up): 84/154
HBeAg seroconversion n/N (hepatitis B virus [6]; HBeAg(+), 7-year follow-up): 61/154
HBsAg loss (%) [kaplan-meier] (hepatitis B virus [6]; HBeAg(+), 7-year follow-up): 11.8%
HBsAg loss, n patients (hepatitis B virus [6]; HBeAg(+), 7-year follow-up): (n = 27)
HBsAg seroconversion (%) [kaplan-meier] (hepatitis B virus [6]; HBeAg(+), 7-year follow-up): 9.7%
HBsAg seroconversion, n patients (hepatitis B virus [6]; HBeAg(+), 7-year follow-up): (n = 21)
HBeAg loss n/N (hepatitis B virus [6]; HBeAg(+), 10-year follow-up): 12/23
HBeAg seroconversion n/N (hepatitis B virus [6]; HBeAg(+), 10-year follow-up): 6/22
HBsAg loss n/N (hepatitis B virus [6]; HBeAg(+), 10-year follow-up, (non-Asian)): 4/81
HBeAg seroconversion n/N (hepatitis B virus [6]; HBeAg(+), phase 3, 1 year): 32/153
HBsAg loss n/N (hepatitis B virus [6]; [13]): 5/158
HBsAg seroconversion n/N (hepatitis B virus [6]; [13]): 2/158
HBsAg loss n/N (hepatitis B virus [6]; HBeAg(−), 3-year follow-up): 0
HBsAg seroconversion n/N (hepatitis B virus [6]; HBeAg(−), 3-year follow-up): 0
HBsAg seroconversion n/N (hepatitis B virus [6]; HBeAg(−), 7-year follow-up): 0
HBsAg loss n/N (hepatitis B virus [6]; HBeAg(−), 10-year follow-up, (non-Asian)): 4/117
HBsAg loss n/N (hepatitis B virus [6]; HBeAg(−), phase 3, 1 year): 0
HBsAg seroconversion n/N (hepatitis B virus [6]; HBeAg(−), phase 3, 1 year): 0
HBsAg loss (%) (hepatitis B virus [6]; [14]): 4.0%
HBsAg loss n/N (hepatitis B virus [6]; [14]): 8/198
HBsAg loss, number of patients (hepatitis B virus [6]; all patients, over 7 years): 28
change of HBsAg levels (hepatitis B virus [6]; patients first receiving oral antiviral agent, after 2 years (96 weeks), FIG. 1): no significant change
ALT nomalisatioin (hepatitis B virus [2]; HBeAg(+) patients): 68%
Anti-Hbe-seroconversion (hepatitis B virus [2]; HBeAg(+) patients): 21%
HBV DNA <60~80 IU/ml (hepatitis B virus [2]; HBeAg(+) patients): 76%
HBs Ag loss (hepatitis B virus [2]; HBeAg(+) patients): 3%
ALT nomalisatioin (hepatitis B virus [2]; HBeAg(−) patients): 76%
HBV DNA <60~80 IU/ml (hepatitis B virus [2]; HBeAg(−) patients): 93%
HBs Ag loss (hepatitis B virus [2]; HBeAg(−) patients): 0%

Cc1cn([C@@H]2C[C@@H](O)[C@H](CO)O2)c(=O)[nH]c1=O [TBV, Telbivudine]
ALT nomalisatioin (hepatitis B virus [2]; HBeAg(+) patients): 77%
Anti-Hbe-seroconversion (hepatitis B virus [2]; HBeAg(+) patients): 22%
HBV DNA <60~80 IU/ml (hepatitis B virus [2]; HBeAg(+) patients): 60%
HBs Ag loss (hepatitis B virus [2]; HBeAg(+) patients): 0.5%
ALT nomalisatioin (hepatitis B virus [2]; HBeAg(−) patients): 74%
HBV DNA <60~80 IU/ml (hepatitis B virus [2]; HBeAg(−) patients): 88%
HBs Ag loss (hepatitis B virus [2]; HBeAg(−) patients): 0%
